Reference: PubChem BioAssay AID1845195 (Molecular Pharmacology Branch, DTP, NCI, 2023)
pIC50: −log10 of the molar value.

System: 156681-154-R-J1 tumor spheroid viability
Assay: Anticancer human tumor 156681-154-R-J1 patient-derived melanoma cell line growth inhibition
Conditions: spheroids with HUVEC and MSC; for pIC50: curve of first compound; for viability, T/C: stronger effect = lower value
Description: Multicellular complex tumor spheroid response to DNA repair inhibitors in combination with DNA-damaging drugs
This study explores the anticancer activities of DNA-damaging drugs and inhibitors of DNA damage repair, both as single agents and in combinations. Complex tumor spheroids comprised of malignant cells, endothelial cells and mesenchymal stem cells served as an in vitro model for human solid tumors. This model system incorporates physiologically relevant features and patient-derived or established malignant cell lines with clinically relevant genetic alterations from many tumor types. Twenty-six patient-derived or established malignant cell lines were evaluated representing sarcoma, melanoma, small cell lung cancer (SCLC), non-small cell lung cancer (NSCLC), as well as bladder, ovarian and pancreatic cancers. The concentration ranges selected for each drug and investigational agent were based upon clinically achievable concentrations if the clinical Cmax of the agent was known.
Compounds. The drugs and compounds olaparib (NSC753686), talazoparib (NSC767125), berzosertib (NSC777718), elimusertib (NSC800525), nedisertib (NSC802822), VX-984 (NSC792969), AZD-1390 (NSC803789), temozolomide (NSC362856), topotecan (NSC609699), trabectedin (NSC813783), staurosporine (NSC755774), and gemcitabine (NSC613327) were obtained from the National Cancer Institute (NCI) Developmental Therapeutics Program Chemical Repository. The FDA-approved anticancer drug set is available from the Developmental Therapeutics Program at https://dtp.cancer.gov/organization/dscb/obtaining/available_plates.htm. […] The stock solutions were prepared in dimethyl sulfoxide (DMSO, Sigma-Aldrich, St. Louis, MO, cat. D2650) at 400-fold the tested concentration and stored at -70 degrees C. Prior to their use, the stock solutions were diluted in fresh medium and the final DMSO concentration in the assay was 0.25% (v/v). All drugs and investigational agents were tested over a range starting from a high concentration at or near the clinical Cmax and decreasing in half-log increments. If the clinical Cmax for an agent had not been determined, the highest concentration tested was 10 microM.
Cell Lines. The patient-derived cancer cell (PDC) lines: 156681-154-R-J1-PDC, 283228-195-R-J1-PDC, 287954-098-R-J1-PDC, 292921-168-R-J2-PDC, 349418-098-R-PDC, 425362-245-T-J1-PDC, 556581-035-R-J1-PDC, and BL0293-F563-PDC were received from the NCI Patient-Derived Models Repository (PDMR, https://pdmr.cancer.gov). The established cell lines HS-SY-2 (RRID:CVCL_8719), MPNST, and SYO-1 (RRID:CVCL_7146) were obtained from the Sloan Kettering Institute. The alveolar soft parts sarcoma cell line ASPS-1 (RRID:CVCL_S738) was established at the NCI and grown from internal seed stocks. The following established cell lines were purchased from the American Type Culture Collection (ATCC, Manassas, VA): G-401 (ATCC, cat. CRL-1441, RRID:CVCL_0270), SW982 (ATCC, cat. HTB-93, RRID:CVCL_1734), VA-ES-BJ (ATCC, cat. CRL-2138, RRID:CVCL_1785), NCI-H719 (ATCC, cat. CRL-5837, RRID:CVCL_1582), NCI-H196 (ATCC, cat. CRL-5823, RRID:CVCL_1509), NCI-H841 (ATCC, cat. CRL-5845, RRID:CVCL_1595), NCI-H1618 (ATCC, cat. CRL-5879, RRID:CVCL_1480), NCI-H1876 (ATCC, cat. CRL-5902, RRID:CVCL_1503), DMS 114 (ATCC, cat. CRL-2066; RRID:CVCL_1174), NCI-H211 (ATCC, cat. CRL-5824; RRID:CVCL_1529), and SW 1271 (ATCC, cat. CRL-2177, RRID:CVCL_1716). The small cell lung cancer cell line COR-L88 was purchased from Sigma-Aldrich (cat. 92031917-1VL, RRID:CVCL_1141). The non-small cell lung cancer cell lines NCI-H226 (RRID:CVCL_1544) and NCI-H322M (RRID:CVCL_1557) were established at the NCI and grown from internal seed stocks. Pooled donor human umbilical vein endothelial cells (HUVEC, Lonza, cat. CC-2519) and human mesenchymal stem cells (hMSC, Lonza, cat. PT-2501) were purchased from Lonza (Walkersville, MD).
Cell Culture. All cells were maintained in an incubator at 37 degrees C and 5% CO2 with 95% humidity. […]

[1] = second compound 0.003 µM, first compound 0.0316 µM
[2] = second compound 0.003 µM, first compound 0.1 µM
[3] = second compound 0.003 µM, first compound 0.316 µM
[4] = second compound 0.003 µM, first compound 1 µM
[5] = second compound 0.003 µM, first compound 3.16 µM
[6] = second compound 0.003 µM, first compound 10 µM
[7] = second compound 0.00949 µM, first compound 0.0316 µM
[8] = second compound 0.00949 µM, first compound 0.1 µM
[9] = second compound 0.00949 µM, first compound 0.316 µM
[10] = second compound 0.00949 µM, first compound 1 µM
[11] = second compound 0.00949 µM, first compound 3.16 µM
[12] = second compound 0.00949 µM, first compound 10 µM
[13] = second compound 0.03 µM, first compound 0.0316 µM
[14] = second compound 0.03 µM, first compound 0.1 µM
[15] = second compound 0.03 µM, first compound 0.316 µM
[16] = second compound 0.03 µM, first compound 1 µM
[17] = second compound 0.03 µM, first compound 3.16 µM
[18] = second compound 0.03 µM, first compound 10 µM
[19] = second compound 0.0949 µM, first compound 0.0316 µM
[20] = second compound 0.0949 µM, first compound 0.1 µM
[21] = second compound 0.0949 µM, first compound 0.316 µM
[22] = second compound 0.0949 µM, first compound 1 µM
[23] = second compound 0.0949 µM, first compound 3.16 µM
[24] = second compound 0.0949 µM, first compound 10 µM
[25] = second compound 0.3 µM, first compound 0.0316 µM
[26] = second compound 0.3 µM, first compound 0.1 µM
[27] = second compound 0.3 µM, first compound 0.316 µM
[28] = second compound 0.3 µM, first compound 1 µM
[29] = second compound 0.3 µM, first compound 3.16 µM
[30] = second compound 0.3 µM, first compound 10 µM
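Note: spheroids exposed to compounds for 7 days before readout.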
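Throughout, for viability, T/C: percent of vehicle control viability where 100% = DMSO-treated spheroids.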

SMILES | pIC50 (second compound 0.003 µM) | pIC50 (second compound 0.00949 µM) | pIC50 (second compound 0.03 µM) | pIC50 (second compound 0.0949 µM) | pIC50 (second compound 0.3 µM) | viability, T/C [1] | viability, T/C [2] | viability, T/C [3] | viability, T/C [4] | viability, T/C [5] | viability, T/C [6] | viability, T/C [7] | viability, T/C [8] | viability, T/C [9] | viability, T/C [10] | viability, T/C [11] | viability, T/C [12] | viability, T/C [13] | viability, T/C [14] | viability, T/C [15] | other results
CC(C)n1c(=O)n(C)c2cnc3cc(F)c(-c4ccc(OCCCN5CCCCC5)nc4)cc3c21 + CC[C@@]1(O)C(=O)OCc2c1cc1n(c2=O)Cc2cc3c(CN(C)C)c(O)ccc3nc2-1 | < 5.00 | < 5.00 | 7.26 | > 7.50 | > 7.50 | 83% | 92.7% | 77.3% | 78.8% | 97.9% | 85.5% | 77.2% | 75% | 74.4% | 76.3% | 80.8% | 78.8% | 57.8% | 44.7% | 30.3% | viability, T/C [16]: 29.6%; viability, T/C [17]: 44.8%; viability, T/C [18]: 31.7%; viability, T/C [19]: 11.9%; viability, T/C [20]: 10.2%; viability, T/C [21]: 10.8%; viability, T/C [22]: 13.2%; viability, T/C [23]: 11.8%; viability, T/C [24]: 13.6%; viability, T/C [25]: 10.2%; viability, T/C [26]: 9.03%; viability, T/C [27]: 9.13%; viability, T/C [28]: 9.94%; viability, T/C [29]: 9.43%; viability, T/C [30]: 15%
COc1ccc([C@@H](O)c2cc(-c3ncnc4cc(N5CCOCC5)ccc34)c(F)cc2Cl)nn1 + CC[C@@]1(O)C(=O)OCc2c1cc1n(c2=O)Cc2cc3c(CN(C)C)c(O)ccc3nc2-1 | 5.24 | 5.45 | 6.21 | > 7.50 | > 7.50 | 80.6% | 70.4% | 78.3% | 63.9% | 54.4% | 46.6% | 89.9% | 75.9% | 75% | 62.4% | 47.6% | 43.3% | 71.5% | 57.8% | 53.9% | viability, T/C [16]: 49.5%; viability, T/C [17]: 41.8%; viability, T/C [18]: 35.3%; viability, T/C [19]: 24.1%; viability, T/C [20]: 30.7%; viability, T/C [21]: 30.3%; viability, T/C [22]: 34%; viability, T/C [23]: 36.3%; viability, T/C [24]: 28.4%; viability, T/C [25]: 32.9%; viability, T/C [26]: 36.8%; viability, T/C [27]: 35.6%; viability, T/C [28]: 42.1%; viability, T/C [29]: 25.9%; viability, T/C [30]: 8.42%
